Measurements from article PMC9120013, “Ribosome inhibition by C9ORF72-ALS/FTD-associated poly-PR and poly-GR proteins revealed by cryo-EM” (Nature Communications, 2022).

Columns and labels:
[1] = target: Escherichia coli 70S ribosome (E. coli)
[2] = target: Oryctolagus cuniculus (rabbit) 80S ribosome (rabbit (Oryctolagus cuniculus)) (UniProt G1SVW5)
[3] = target: Oryctolagus cuniculus (rabbit) 80S ribosome (rabbit (Oryctolagus cuniculus)) (UniProt G1SVW5); remark: listed apart in the source
[4] = system: ribosomes on endogenous globin mRNAs in RRL; experiment: Polysome profiling of RRL translating endogenous mRNA; assay type: biochemical, rabbit; conditions: 4 μM PR20, 4 μM GR20, 1 mM GDPCP; 5 min
Experimental: Polysome profiles were obtained using RRL untreated with nuclease, so that it contained endogenous mRNA. 100 μl reactions containing 50% RRL (Green Hectare) 30 μM hemin (Sigma), 75 mM KCl, 0.5 mM MgCl2, 1 mM ATP, 0.2 mM GTP, 2.1 mg/ml creatine phosphate, 30 μM of L-amino acid mix, 15 mg/ml yeast tRNA, 6 mM BME and, when appropriate, translation inhibitors (4 μM PR20, 4 μM GR20, cycloheximide, 40 μM harringtonine, or 1 mM GDPCP with 1 mM MgCl2) were assembled on ice. To start translation, the reactions were warmed in a heat block at either 30 °C or 37 °C as noted. After 5 min, reactions were terminated by addition of 100 μl of ice-cold Stop Buffer (50 mM Hepes-KOH pH 7.4, 150 mM KOAc, 10 mM Mg(OAc)2, and 200 μg/ml cycloheximide). The stopped reactions were applied to 10–50% sucrose gradients in Gradient Buffer (50 mM Hepes-KOH pH 7.4, 150 mM KOAc, 10 mM Mg(OAc)2, 2 mM DTT, and 100 μg/ml cycloheximide) and spun in an SW-41 rotor (Beckman Coulter) at 197,568xg (avg) for 2 h at 4 °C. Gradients were pumped on a Gradient Station (BioComp Instruments) at a pump rate of 0.29 mm/min and the absorbance at 254 nm was measured by an Econo UV monitor (Biorad) zeroed with 10% sucrose-gradient buffer. The traces were output as CSV files and imported into GraphPad Prism, where the 80S peaks were aligned. Controls were highly reproducible day-to-day. Each experimental condition is shown compared to concurrent, uninhibited control.

[5] = system: ribosomes on endogenous beta-globin mRNA in RRL; experiment: Toeprinting of 80S and 4-5-mer polysome fractions on beta-globin mRNA; assay type: biochemical, rabbit; conditions: for normalized ratio START to CDS, MEAN: 4-5-mer, primer B, mean of ten 20 bp windows
Experimental: Toeprinting analyses were carried out similarly to those in refs. [51],[74], using 80S and polysome (4–5-some) fractions collected from polysome profiles as described in “Polysome Profiles” except that reactions were doubled in size (200 μL), performed at 37 °C, and were stopped with ice-cold 1xAMV Buffer (50 mM Tris-HCl pH 8.3, 50 mM KCl, 5 mM MgCl2) with 200 μg/ml cycloheximide before being separated on at 10–35% sucrose gradient in 1xAMV buffer with 0.5 mM spermidine and 1 mM DTT. 600 μl of each fraction (80S or 4–5-mer) was supplemented with 10 mM DTT. Then 10 U of AMV reverse transcriptase (Promega), 120 nmol dNTPs, and 120 pmol of a 5'[6-carboxyfluorescein (FAM)]-labeled primer (IDT-DNA) were added. Two primers specific to the endogenous beta-globin mRNA in RRL were used in separate reactions: 5′-(FAM)-GGACTCGAAGAACCTCTG (as in ref. [74]) annealed 136 nucleotides downstream of the AUG or 5′-(FAM)-[…] annealed to the end of the 3'-UTR. Primers were extended at 37 °C for 30 min, and then the reaction were extracted in 1:1 phenol:chloroform, supplemented with 1/10 volume of 3 M sodium acetate pH 5.2, and precipitated with 2.5 volumes of 100% ethanol. Pellets were resuspended in 10 μl of deionized formamide (Applied Biosystems) with 1/20 volume of a 35-500 nucleotide orange-dye labeled DNA size standard (MCLab) and loaded onto a 96-well plate. The samples were sent for fragment analysis by capillary electrophoresis to the UMass Chan Medical School Molecular Biology Core Laboratory using an ABI3730XL DNA Fragment Analyzer with capillaries loaded with POP-7 polymer and with an injection voltage of 12.5 kV. Data collection was performed with GeneMapper software (ABI). Data were exported as.fsa files and were analyzed (aligning to ladder and background correction) in GeneMarker 3.0.1 software (SoftGenetics) running in demo mode. Screen captures of traces were taken and traces were integrated using the “Quantification” feature and manually adjusting sliders to include the desired nucleotide range.

[6] = system: translation in E. coli cell lysates; experiment: Nanoluciferase translation in E. coli cell lysate (NEBExpress); assay type: biochemical; conditions: 1 μl of 200 μM stock in 10-μl reaction
Experimental: E. coli cell lysates (NEBExpress, NEB) were used to investigate bacterial translation inhibition by GR20 and PR20. We monitored the translation of an in vitro transcribed mRNA encoding a Shine-Dalgarno sequence preceding the nanoluciferase (Promega) open reading frame. The mRNA was prepared by in vitro transcription of a PCR-template obtained by amplifying the nanoluciferase open reading frame from the plasmid described in reference with the following primers: T7 + SD-forward: […], based on the pet28a+ plasmid and reverse: […]. […] Then 1 μl of water or different concentrations (10-100 μM) of PR20 or GR20 or 200 μM erythromycin were added and the plate was incubated at 37 °C for 5 min inside of an Infinite m1000 pro microplate reader (Tecan). Next, the nanoluciferase mRNA was added to the final concentration of 20 ng/μl in a 10-μl reaction. Translation reactions were incubated at 37 °C for 20 min, luminescence of the samples was continuously measured by the microplate reader to record the time course of protein synthesis. Time progress curves, obtained in the experiments, were processed in MS Excel, and the rate of change of the relative light units between 100 and 200 s was measured, the mean and SEM of three experiments is reported in column graph in Supplementary Fig. 2a.

E. coli 70S ribosomes = experiment: Erythromycin competition in the puromycin assay on 70S ribosomes; assay type: biochemical; conditions: for fMet-puromycin formed: 20 μM erythromycin and/or 2 μM PR20, 30 nM 70S, quenched at 300 s
Experimental: The assay was performed as described above for the puromycin kinetics, except that the 70S ribosomes were pre-incubated with 22 μM erythromycin for 5 min prior to adding PR20. The stock solution of erythromycin contained 2 mM erythromycin in ethanol, so the control reaction (70S with no erythromycin) and the reactions with erythromycin were prepared to contain the same amount of ethanol (1%). The final concentrations after addition of puromycin were: 30 nM 70S, 66 nM [^35S]-fMet-tRNA^fMet, 1 μM mRNA, 2 μM PR20 (no PR20 in the control reaction), 20 μM erythromycin (or no erythromycin in a control reaction), 50 µM puromycin (in 20 mM Tris-acetate (pH 7.0), 100 mM NH4OAc, 12 mM Mg(OAc)2 and 1% ethanol). Samples were quenched at 300 s when the uninhibited reaction had reached a plateau.

[7] = even at 100 µM; cited from earlier work
Excerpt: (§1) This work uncovers how the toxic arginine-containing DPR proteins associated with C9ORF72-ALS/FTD inhibit translation. […] Poly-PR and poly-GR binding to large subunits and assembled 80S ribosomes would compete with the binding of initiator Met-tRNA or elongator tRNAs, and strongly interfere with peptidyl transfer, consistent with transl ...

translation = conditions: even at 100 µM; cited from earlier work
Excerpt: as §1

Q: Which apparent inhibition constant (Ki) of peptidyl transfer from [35S]-fMet-tRNAfMet to puromycin on E. coli 70S ribosomes [1] does the source give for “PR20 (poly-proline-arginine, 20 repeats) (peptide)” here?
A: Its apparent inhibition constant (Ki) of peptidyl transfer from [35S]-fMet-tRNAfMet to puromycin on E. coli 70S ribosomes is 0.044 µM.

Q: What about the concentration at which inhibition of peptidyl transfer to puromycin begins on purified rabbit 80S ribosomes [2] of the same compound?
A: Its concentration at which inhibition of peptidyl transfer to puromycin begins on purified rabbit 80S ribosomes is 100 nM.

Q: What about the IC50 of translation of nanoluciferase mRNA in 33% rabbit reticulocyte lysate [3] of the same compound?
A: The IC50 of translation of nanoluciferase mRNA in 33% rabbit reticulocyte lysate was 0.325 µM.

Q: What about the IC50 of translation of nanoluciferase mRNA in 50% rabbit reticulocyte lysate [3] of the same compound?
A: The IC50 of translation of nanoluciferase mRNA in 50% rabbit reticulocyte lysate was 0.84 µM.

Q: Which “polysome profile, half-mer peaks” value [4] does the source give for `Nc1nc2c(ncn2[C@@H]2O[C@H](COP(=O)(O)OP(=O)(O)CP(=O)(O)O)[C@@H](O)[C@H]2O)c(=O)[nH]1` [GDPCP] here?
A: The value was “increase in half-mer peaks”.

Q: What about the “site of ribosome accumulation, toe-printing of polysome fractions” value [5] of the same compound?
A: Its value is “accumulate within the open reading frame”.

Q: What about the “Ratio (START to CDS)” value ([5]; 80S fraction, primer A, Fig. 2f independent repeat) of the same compound?
A: The value was 1.314.

Q: And the “Normalized ratio START/ORF” value ([5]; 80S fraction, primer A, Fig. 2f independent repeat, no inhibitor = 1)?
A: Its value is 0.4872.

Q: What about the “normalized ratio START to CDS, MEAN” value ([5]; Fig. 2g) of the same compound?
A: Its value is 0.7887.

Q: And the “normalized ratio START to CDS, MEAN” value ([5]; Fig. 2h independent repeat)?
A: The value was 0.4286.

Q: What does the source list for `CC[C@H]1OC(=O)[C@H](C)[C@@H](O[C@H]2C[C@@](C)(OC)[C@@H](O)[C@H](C)O2)[C@H](C)[C@@H](O[C@@H]2O[C@H](C)C[C@H](N(C)C)[C@H]2O)[C@](C)(O)C[C@@H](C)C(=O)[C@H](C)[C@@H](O)[C@]1(C)O` [erythromycin]?
A: effect on nanoluciferase translation in E. coli cell extracts [6]: Inhibition of nanoluciferase translation; fMet-puromycin formed (E. coli 70S ribosomes; first column (replicate 1)): 1468; fMet-puromycin formed (E. coli 70S ribosomes; second column (replicate 2)): 1479; effect of erythromycin preincubation on inhibition by PR20 (E. coli 70S ribosomes; 20 μM erythromycin, 2 μM PR20): prevents the inhibitory action of PR20

Q: For “RRRRNRTRRNRRRVR [FHV, arginine-rich polypeptide]”, which cell death [7] is on record?
A: Its cell death is “not to cause translation inhibition or cell death”.

Q: And the translation inhibition (translation)?
A: The translation inhibition was “not to cause translation inhibition”.

Q: Which cell death [7] does the source give for “GRKKRRQRRRPPQ [TAT, arginine-rich polypeptide]” here?
A: Its cell death is “not to cause translation inhibition or cell death”.

Q: And the translation inhibition (translation)?
A: The translation inhibition was “not to cause translation inhibition”.

Q: Which cell death [7] does the source give for “RRRRRRRRRRRR [R12, arginine-rich polypeptide]” here?
A: Its cell death is “not to cause translation inhibition or cell death”.

Q: What about the translation inhibition (translation) of the same compound?
A: Its translation inhibition is “not to cause translation inhibition”.

Q: With “PR40 (poly-proline-arginine, 40 repeats) (peptide)” as the compound, how does the apparent inhibition constant (Ki) of peptidyl transfer to puromycin on E. coli 70S ribosomes [1] read?
A: The apparent inhibition constant (Ki) of peptidyl transfer to puromycin on E. coli 70S ribosomes was < 0.03 µM.

Q: What about the apparent inhibition constant (Ki) of peptidyl transfer to puromycin on purified rabbit 80S ribosomes [2] of the same compound?
A: Its apparent inhibition constant (Ki) of peptidyl transfer to puromycin on purified rabbit 80S ribosomes is < 0.03 µM.
